# Measured values: patent US6864288B2, “Regulation of phospholipase D activity” (Brigham & Women's Hospital, Inc., priority 1999, dated 2005)
# How the values were obtained:
# [1] = test system: cabbage phospholipase D (cPLD, EC 3.1.4.4); test: Purified cabbage PLD activity (choline release from PC), enzyme kinetics with lipids; type: biochemical; settings: for Ki: cPLD 3 u/reaction, 30° C., PC 0.5-5 mM, Ki from Slope = Km/Vm (1 + [I]/Ki); for Vm app: cPLD in presence of the lipid, enzyme alone Vm 0.29 (nmoles/sec); for inhibition of cPLD (in words): compared with PSDP
# Procedure: Reactions were terminated at 30 sec intervals and choline release quantitated as in FIG. 2 legend. Values represent the mean for n≧4 for reactions in the absence of PSDP (●, r^2=0.963) and the mean for n≧3 with PSDP (Δ, r^2=0.995, 0.971 and 0.953 for 10, 100 and 1000 nM, respectively). CS Chem3D Pro software (CambridgeSoft Corp., Cambridge, Mass.) was used to calculate an energy minimized model of PSDP (inset).
# (§1) PMN lysates (90-130 μg protein), purified phospholipase D (3-30 units) (EC 3.1.4.4., Sigma Chemical Co.) or recombinant hPLD1b were warmed (37° C. for mammalian enzyme and 30° C. for cabbage, 3 min) and exposed to PSDP, PSMP or FDP (10-1000 nM, 5 min, 37° C. or 30° C.) followed by PC (0.5 to 5 mM) in Tris-HCl (50 mM pH 7.5) with CaCl2 (30 mM). Reactions were terminated at 30 second intervals (0-90 seconds) with Tris-HCl (1 M) plus EDTA (50 mM). Choline release was quantitated as in ref 26.
# [2] = test system: PLD activity in PMN lysates; test: PLD activity in PMN lysates after LTB4, lipid added to the lysate; type: biochemical, human; settings: 100 nM added to PMN lysates 60 sec after LTB4 100 nM
# Procedure: Lysates were generated from cells at rest or after exposure to agonist using a lysis buffer comprised of 0.1 M Hepes (pH 7.4), 0.7 mM sodium orthovanadate, 10 μM p-nitrophenylphosphate, 10 mM EGTA, 5.5% triton X-100, 0.5 M β-glycerophosphate, 10 mM phenylmethylsulfonylfluoride, 0.1 mM ammonium molybdate, 12 mM DFP, 5 μgml^−1 leupeptin, 2 μgml^−1 aprotinin and 7 μgml^−1 pepstatin A (as in ref 25) and utilized for bioassay.
# as §1
# Because PLD activation occurs in vivo in the presence of many cofactors which modulate its activity, it was also determined the impact of PSDP on PLD activity in PMN lysates. Sixty seconds following LTB4, PSDP levels decreased (28%, FIG. 1) and PLD activity was maximal (FIG. 2).
# [3] = target: T1, recombinant human PLD1b (rhPLD1b) (Homo sapiens, UniProt Q13393); test: Recombinant human PLD1b activity (choline release from PC), enzyme kinetics with PSDP; type: biochemical
# T1 construct: made in house; host or cells: Spodoptera frugiperda Sf9 cells, recombinant baculovirus (pACGHLT transfer vector)
# T1 sequence (Q13393 1-1036 isoform Q13393-2): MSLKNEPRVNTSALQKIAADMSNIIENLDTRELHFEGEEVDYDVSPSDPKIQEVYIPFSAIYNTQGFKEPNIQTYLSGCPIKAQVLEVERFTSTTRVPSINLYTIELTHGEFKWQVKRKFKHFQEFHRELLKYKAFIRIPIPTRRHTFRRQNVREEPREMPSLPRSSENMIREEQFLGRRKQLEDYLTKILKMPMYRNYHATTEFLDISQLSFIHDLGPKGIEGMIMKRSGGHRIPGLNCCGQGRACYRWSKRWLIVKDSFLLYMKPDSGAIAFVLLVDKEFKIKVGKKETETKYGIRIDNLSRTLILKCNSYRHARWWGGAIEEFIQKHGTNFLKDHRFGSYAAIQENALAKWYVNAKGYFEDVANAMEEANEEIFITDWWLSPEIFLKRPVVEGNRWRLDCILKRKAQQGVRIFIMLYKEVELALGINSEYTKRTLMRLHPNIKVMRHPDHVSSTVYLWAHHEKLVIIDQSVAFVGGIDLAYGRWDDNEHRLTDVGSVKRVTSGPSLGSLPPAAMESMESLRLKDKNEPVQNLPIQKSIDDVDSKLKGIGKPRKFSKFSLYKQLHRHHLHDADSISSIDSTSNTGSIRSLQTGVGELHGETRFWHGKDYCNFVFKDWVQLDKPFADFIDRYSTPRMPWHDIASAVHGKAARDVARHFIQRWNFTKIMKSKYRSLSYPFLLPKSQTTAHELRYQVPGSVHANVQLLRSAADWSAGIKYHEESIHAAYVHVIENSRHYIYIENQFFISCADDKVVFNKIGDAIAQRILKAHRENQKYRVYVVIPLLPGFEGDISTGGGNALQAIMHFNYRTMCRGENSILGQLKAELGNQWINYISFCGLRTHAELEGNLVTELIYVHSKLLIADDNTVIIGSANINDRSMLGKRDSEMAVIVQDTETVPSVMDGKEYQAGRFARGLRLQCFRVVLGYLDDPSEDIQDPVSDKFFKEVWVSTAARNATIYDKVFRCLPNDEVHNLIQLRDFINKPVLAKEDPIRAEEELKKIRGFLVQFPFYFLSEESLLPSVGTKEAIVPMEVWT
# Procedure: Spodoptera frugiperda (Sf9) cells were cultured in suspension at 2×10^5 to 2×10^6 cells/ml TC 100 medium supplemented with 10% fetal calf serum (Gibco). A cDNA encoding human PLD1b (cloned from placental tissue) was inserted into the transfer vector pACGHLT (Pharmingen) downstream of, and in frame with, vector sequences encoding glutathione-S-transferase (GST), hexahistidine, a protein kinase A phosphorylation site and a thrombin cleavage site. The GST-hPLD1b construct was cotransfected into Sf9 cells with linearized, polyhedrin-minus (PH-), AcMNPV DNA, Bac-N-Blue, according to the supplier's instructions (Invitrogen). Homologous recombination between linearized virus and the transfer vector restored the function of essential viral gene ORF1629 to yield infectious, recombinant virus. After two rounds of plaque-purification, recombinant virus was amplified by large scale infections of Sf9 cells until a titer of 8×10^7 pfu/ml was obtained. […]
# as §1, with “Reactions were terminated at 30 second intervals (0-90 seconds) with Tris-HCl (1 M) plus EDTA (50 mM).” left out
# [4] = test system: PLD activity in human PMN; test: LTB4-stimulated PLD activity in lysates of treated human PMN; type: cell-based
# Procedure: (§2) Cell lysates (2-5×10^6 cells, 90-130 μg protein) were prepared from the same aliquots of PMN used to determine PSDP (see FIG. 1 & Methods), warmed to 37° C. and exposed to PC (2 mM in 50 mM Tris-HCl, pH 7.5, plus 30 mM CaCl2). Reactions were terminated at 30 sec intervals and choline release was quantitated (26). […] Superoxide anion generation by freshly isolated human PMN was determined (10 min, 37° C.) for LTB4 (100 nM), 15-epi-LXa (100 nM), and increasing concentrations of 15-epi-LXa (1-100 nM, 5 min, 37° C.) followed by LTB4 (100 nM, 10 min, 37° C.). Values reported in Panel C are the mean±S.E. for n=3 separate PMN donors. *P<0.05 by Student's t-test.
# Peripheral venous blood (˜180 ml) was obtained by venipuncture from healthy volunteers who denied taking any medication for at least two weeks and had given written informed consent to a protocol approved by Brighamn and Women's Hospital's Human Research Committee. […]
# as §1, with “Reactions were terminated at 30 second intervals (0-90 seconds) with Tris-HCl (1 M) plus EDTA (50 mM).” left out
# human PMN = test: LTB4-stimulated superoxide anion generation by human PMN (cytochrome c); type: cell-based; settings: 15-epi-LXa 1-100 nM, 5 min, then LTB4 100 nM, 10 min, 37° C.
# Procedure: as §2
# Freshly isolated human PMN (1-3×10^6 PMN/ml HBSS+1.6 mM CaCl2) were incubated (5 min, 37° C.) in the presence of 15-epi-LXa (1-100 nM) or vehicle (0.1% ethanol), and then exposed (10 min) to LTB4 (100 nM) in the presence of cytochrome c (7 mg/ml). Superoxide anion generation was determined as in ref 22.
# [32P]-PSDP in human PMN = PSDP remodeling in [32P]-labeled human PMN (TLC, phosphoimaging); type: cell-based
# Procedure: Panel A: Scheme for aspirin-triggered 15-epi-LXA4 biosynthesis and structure of the stable analog, 15-epi-16-para-fluoro-phenoxy-LXA4-methyl ester (15-epi-LXa) (left), and hypothetical scheme for PIPP signaling (right). PMN were labeled with [γ-^32P]-ATP and incubated (12.5×10^6 ml^−1, 37° C.) with LTB4 (●, 100 nM), 15-epi-LXa (♦, 100 nM), vehicle (□, 0.1% ethanol) or 15-epi-LXa (100 nM, 5 min) followed by LTB4 (▴, 100 nM). Non-saponifiable lipids were extracted and separated by TLC, and [^32P]-incorporation was quantitated by phosphoimaging (see Methods). Values are densitometric measurements.
# Peripheral venous blood (˜180 ml) was obtained by venipuncture from healthy volunteers who denied taking any medication for at least two weeks and had given written informed consent to a protocol approved by Brighamn and Women's Hospital's Human Research Committee. PMN were isolated from whole blood and steady state labeled with [γ-^32P]ATP (40 μCiml^−1, 90 min, 37° C.) as in (Levy, B. D., Petasis, N. A., and Serhan, C. N. (1997) Polyisoprenyl phosphates in intracellular signalling. Nature 389, 985-989). Labeled PMN were resuspended (20×10^6 ml^−1 PBS with 1 mM CaCl2, pH 7.40) and exposed to LTB4 (100 nM), 15-epi-LXa (100 nM) or vehicle (0.1% EtOH) for 0 to 300 seconds (37° C.). From each incubation, aliquots were removed at indicated intervals to determine the radiolabeling of nonsaponifiable lipids (10-12×10^6 PMN) and PLD activity (1-1.25×10^6 PMN). Materials present in each incubation were saponified, extracted and separated by TLC with phosphoimaging (model 425E and integration software; Molecular Dynamics), which was used for PSDP mass determination as in ref 22.
# [5] = effect on LTB4-stimulated changes in PSDP
compound,measurement,setting,value
"CC(C)=CCC/C(C)=C/CC/C(C)=C/C1C(COP(=O)(O)OP(=O)(O)O)C1(C)CC/C=C(\C)CCC=C(C)C (stereo in doubt) [Presqualene diphosphate, presqualene diphosphate]",mode of inhibition (Lineweaver-burk analyses),[1]; PSDP 10 to 1000 nM,competitive inhibition model
same,Ki,[1],20 nM
same,Vm app,[1],0.25
same,inhibition of PLD activity,[2],89.5+/−9.7%
same,Ki,"[3]; rhPLD1b 0.3 u/reaction, 37° C.",6 nM
same,Vm app,"[3]; rhPLD1b in presence of the lipid, enzyme alone Vm 0.36 (nmoles/sec)",0.03
"CC(C)=CCC/C(C)=C/CC/C(C)=C/C1C(COP(=O)(O)O)C1(C)CC/C=C(\C)CCC=C(C)C (stereo in doubt) [Presqualene monophosphate, presqualene monophosphate]",loss in inhibitory potency compared to PSDP,[1]; cPLD,greater than 100 fold
same,Ki,[1],3210 nM
same,Vm app,[1],0.36
"COC(=O)CCC[C@H](O)[C@H](O)/C=C/C=C/C=C\C=C\[C@H](O)COc1ccc(F)cc1 [15-epi-LXa, 15-epi-16-para-fluoro-phenoxy-LXA4-methyl ester]",inhibition of LTB4-stimulated PLD activity,"[4]; 15-epi-LXa 100 nM, 5 min, then LTB4 100 nM, at 60 sec",~81%
same,inhibition of LTB4-stimulated O2- generation (in words),human PMN,potently inhibited
same,effect alone on rate of PIPP remodeling,"[32P]-PSDP in human PMN; 100 nM, without LTB4",did not affect the rate of PIPP remodeling
same,increase in [32P]-PSDP,"[32P]-PSDP in human PMN; 15-epi-LXa 100 nM, 5 min, then equimolar LTB4 100 nM, at 60 sec",~72%
same,potency relative to 16-phenoxy-LXA4 and LXA4,[32P]-PSDP in human PMN; [5],1-2 orders of magnitude
same,rank order of potency,[32P]-PSDP in human PMN; [5],15-epi-LXa>16-phenoxy-LXA4>LXA4
"COC(=O)CCC[C@H](O)[C@H](O)/C=C/C=C/C=C\C=C\[C@H](O)COc1ccccc1 [16-phenoxy-LXA4, 16-phenoxy-LXA4-methyl ester]",rank order of potency,[32P]-PSDP in human PMN; [5],15-epi-LXa>16-phenoxy-LXA4>LXA4
"CCCCC/C=C\C[C@@H](O)/C=C/C=C/C=C\[C@@H](O)CCCC(=O)O [LTB4, leukotriene B4]",time of maximal increase in PLD activity,[4]; LTB4 100 nM,≤ 60 s
same,decrease in [32P]-PSDP,"[32P]-PSDP in human PMN; LTB4 100 nM, within 60 sec, 37° C.",28%
"CCCCC[C@H](O)/C=C/C=C\C=C\C=C\[C@@H](O)[C@@H](O)CCCC(=O)O [LXA4, lipoxin A4]",rank order of potency,[32P]-PSDP in human PMN; [5],15-epi-LXa>16-phenoxy-LXA4>LXA4
CC(C)=CCC/C(C)=C/CC/C(C)=C/CC/C=C(\C)CC/C=C(\C)CCC=C(C)C [Squalene],Vm app,[1],0.46
same,inhibition of cPLD (in words),[1],Comparable inhibition was not evident
phosphatidic acid,Vm app,[1],0.43
same,inhibition of cPLD (in words),[1],Comparable inhibition was not evident
